Experimental data: PMC8778818, “Synthesis, Structural Characterization and Anticancer Activity of New 5-Trifluoromethyl-2-thioxo-thiazolo[4,5-d]pyrimidine Derivatives” (Pharmaceuticals, 2022)

How the values were obtained:
OVCAR-3 = assay: NCI-60 screen, Ovarian Cancer OVCAR-3; assay type: cell-based, human; settings: for Growth of Cells (%): OVCAR-3, 10^−5 M one dose
A549/ATCC = assay: NCI-60 screen, Non-Small Cell Lung Cancer A549/ATCC; assay type: cell-based, human; settings: for Growth of Cells (%): 10^−5 M one dose
SK-OV-3 = assay: NCI-60 screen, Ovarian Cancer SK-OV-3; assay type: cell-based, human; settings: for Growth of Cells (%): SK-OV-3, 10^−5 M one dose
MDA-MB-468 = assay: NCI-60 screen, Breast Cancer MDA-MB-468; assay type: cell-based, human; settings: for Growth of Cells (%): MDA-MB-468, 10^−5 M one dose
Experimental: The search for the cytotoxic activity of new derivatives usually starts with in vitro cell-based screening. Four compounds 2b (NSC D-745983/1), 3b (NSC D-766111/1), 4b (NSC D-785591/1) and 4c (NSC D-771706/1), selected by the National Cancer Institute were tested in the anticancer screen for a panel of approximately 60 human disease-oriented tumor cell lines, organized into subpanels derived from nine human cancer types—leukemia, melanoma, and cancers of the lung, colon, brain, breast, ovary, prostate, and kidney. They were initially tested at only one concentration of 10 µM (10^−5 M) for each cell line, which were inoculated and preincubated on a microtiter plate for […]. The results of the one-dose anticancer assay for the tested new compounds are reported as the percentage of the treated cell growth in comparison with untreated no-drug control. This allows for detection of the growth inhibition—values 0–100 and cytotoxicity; negative numbers mean cell death.
Antitumor activity in five dose testing (10^−4−10^−8 M) is expressed by three different dose–response parameters for each of the 60 human tumor cell lines. The GI50 value (molar concentration causing a half-growth inhibition), TGI (molar concentration required for total growth inhibition), which signifies the cytostatic effect, and LC50 (molar concentration of the compound required for 50% cell death). LC50 signifies the cytotoxic effect. […] Nevertheless, the selectivity for GI50 can be seen for several cell lines within subpanel leukemia (SR, log GI50 −6.36) and non-small cell lung cancer (NCI-H522, log GI50 −6.69).
The antitumor screening (NCI-60) was performed at the National Cancer Institute, Bethesda, USA. A total panel of approximately 60 human tumor cell lines derived from nine different cancer types (leukemia, non-small cell lung, colon, brain, melanoma, ovarian, renal, prostate and breast) formed the basis of this in vitro test. The origins and processing of the cell lines used in the study were described previously. First, the compounds were evaluated in a primary anticancer assay at 10^−5 M. Results for each tested compound are reported as the percent of growth of the treated cells. […] The human tumor cell lines of the cancer screening panel were grown in an RMPI 1640 medium containing 5% fetal bovine serum and 2 mM of L-glutamine. Each cell line was inoculated and preincubated at 37 °C, 5% CO2, 95% air and 100% relative humidity for 24 h, before the addition of the test compound into 96-well microtiter plates in 100 µL at plating densities ranging from 5000 to 40,000 cells/well. The density of inoculum depends on the type of tumor cell and its growth characteristics. The screened compounds were solubilized in dimethyl sulfoxide at 400-fold the desired final concentration and stored frozen. At the time of the test agents’ addition, an aliquot of frozen concentrate was thawed and diluted to twice the desired final concentration with complete medium containing 50 µg/mL gentamicin. Next, the test compounds were evaluated at the four additional 10-fold dilutions to reach the final concentrations plus control. Aliquots of 100 µL of the different dilutions (100, 10, 1, […] µM/mL) of the tested compounds were added to microtiter wells, and the culture was incubated for 48 h under the same conditions. Cell were fixed in situ by the addition of 50 µL of cold 50% trichloroacetic acid and incubated for 60 min at 4 °C. The supernatant was discarded; plates were washed five times with water and air-dried. Sulforhodamine B at 0.4% in 1% acetic acid, 100 µL, was added to each well, then plates were incubated for 10 min at room temperature. Unbound dye was removed by washing five times with 1% acetic acid and air dried. The protein-bound stain was solubilized with a […] trizma base and the absorbance was read on an automated plate reader. A wavelength of 515 nm was used to read optical densities. […]

SK-MEL-5 = assay: NCI-60 screen, Melanoma SK-MEL-5; assay type: cell-based, human; settings: for Growth of Cells (%): SK-MEL-5, 10^−5 M one dose
M14 = settings: for Growth of Cells (%): M14, 10^−5 M one dose
RXF 393 = assay: NCI-60 screen, Renal Cancer RXF 393; assay type: cell-based, human; settings: for Growth of Cells (%): RXF 393, 10^−5 M one dose
COLO-205 = assay: NCI-60 screen, Colon Cancer COLO-205; assay type: cell-based, human; settings: for Growth of Cells (%): COLO-205, 10^−5 M one dose
SK-MEL-2 = assay: NCI-60 screen, Melanoma SK-MEL-2; assay type: cell-based, human; settings: for Growth of Cells (%): SK-MEL-2, 10^−5 M one dose
SK-MEL-28 = assay: NCI-60 screen, Melanoma SK-MEL-28; assay type: cell-based; settings: for Growth of Cells (%): SK-MEL-28, 10^−5 M one dose
MCF7 = assay: NCI-60 screen, Breast Cancer MCF7; assay type: cell-based, human; settings: for Growth of Cells (%): MCF7, 10^−5 M one dose
HOP-62 = assay: NCI-60 screen, Non-Small Cell Lung Cancer HOP-62; assay type: cell-based; settings: for Growth of Cells (%): HOP-62, 10^−5 M one dose
UO-31 = assay: NCI-60 screen, Renal Cancer UO-31; assay type: cell-based; settings: for Growth of Cells (%): UO-31, 10^−5 M one dose
MALME-3M = assay: NCI-60 screen, Melanoma MALME-3M; assay type: cell-based, human; settings: for Growth of Cells (%): 10^−5 M one dose
KM12 = assay: NCI-60 screen, Colon Cancer KM12; assay type: cell-based, human; settings: for Growth of Cells (%): KM12, 10^−5 M one dose
MDA-MB-231/ATCC = assay: NCI-60 screen, Breast Cancer MDA-MB-231/ATCC; assay type: cell-based; settings: for Growth of Cells (%): 10^−5 M one dose
[1] = Homo sapiens, five doses 10^−4–10^−8 M
[2] = Homo sapiens, COLO-205, five doses 10^−4–10^−8 M
[3] = Homo sapiens, SK-MEL-2, five doses 10^−4–10^−8 M

With `FC(F)(F)c1nc(Cl)c2sc(=S)n(-c3ccccc3)c2n1` [Compound 3b, 7-chloro-3-phenyl-5-(trifluoromethyl)[1, 3]thiazolo[4,5-d]pyrimidine-2(3H)-thione] the GI50 (OVCAR-3; Homo sapiens, OVCAR-3, five doses 10^−4–10^−8 M) was 1.91 µM, the CC50 (OVCAR-3; Homo sapiens, OVCAR-3, five doses 10^−4–10^−8 M, read-out: log LC50 (the source's name) (converted)) was 6.03 µM and the “Growth of Cells (%)” value (OVCAR-3) was −41.27%. For the same compound, the “log TGI” value (OVCAR-3; OVCAR-3, five doses 10^−4–10^−8 M) was −5.47 log M, the “Growth of Cells (%)” value (A549/ATCC) was 91.16% and the GI50 (A549/ATCC; [1]) was 7.59 µM. For the same compound, the LC50 (A549/ATCC; [1]) was 53.7 µM, the “log TGI” value (A549/ATCC; five doses 10^−4–10^−8 M) was −4.66 log M and the GI50 (SK-OV-3; Homo sapiens, SK-OV-3, five doses 10^−4–10^−8 M) was 4.9 µM. For the same compound, the CC50 (SK-OV-3; Homo sapiens, SK-OV-3, five doses 10^−4–10^−8 M, read-out: log LC50 (the source's name) (converted)) was > 100 µM, the “Growth of Cells (%)” value (SK-OV-3) was 101.94% and the “log TGI” value (SK-OV-3; SK-OV-3, five doses 10^−4–10^−8 M) was −4.97 log M. The GI50 (MDA-MB-468; Homo sapiens, MDA-MB-468, five doses 10^−4–10^−8 M) was 1.7 µM, the CC50 (MDA-MB-468; Homo sapiens, MDA-MB-468, five doses 10^−4–10^−8 M, read-out: log LC50 (the source's name) (converted)) was 7.41 µM and the “Growth of Cells (%)” value (MDA-MB-468) was 54.38%. For the same compound, the “log TGI” value (MDA-MB-468; MDA-MB-468, five doses 10^−4–10^−8 M) was −5.45 log M, the GI50 (SK-MEL-5; Homo sapiens, SK-MEL-5, five doses 10^−4–10^−8 M) was 2.19 µM and the CC50 (SK-MEL-5; Homo sapiens, SK-MEL-5, five doses 10^−4–10^−8 M, read-out: log LC50 (the source's name) (converted)) was 12.3 µM. The “Growth of Cells (%)” value (SK-MEL-5) was 81.95%, the “log TGI” value (SK-MEL-5; SK-MEL-5, five doses 10^−4–10^−8 M) was −5.31 log M and the “Growth of Cells (%)” value (M14) was 26.96%. The “log TGI” value (M14; M14, five doses 10^−4–10^−8 M) was −5.39 log M, the GI50 (RXF 393; Homo sapiens, RXF 393, five doses 10^−4–10^−8 M) was 1.82 µM and the CC50 (RXF 393; Homo sapiens, RXF 393, five doses 10^−4–10^−8 M, read-out: log LC50 (the source's name) (converted)) was 6.17 µM. For the same compound, the “Growth of Cells (%)” value (RXF 393) was −16.27%, the “log TGI” value (RXF 393; RXF 393, five doses 10^−4–10^−8 M) was −5.47 log M and the “Growth of Cells (%)” value (COLO-205) was 30.63%. For the same compound, the “log TGI” value (COLO-205; COLO-205, five doses 10^−4–10^−8 M) was −5.44 log M, the GI50 (COLO-205; [2]) was 1.95 µM and the LC50 (COLO-205; [2]) was 6.61 µM. For the same compound, the GI50 (SK-MEL-2; [3]) was 2 µM, the LC50 (SK-MEL-2; [3]) was 7.24 µM and the “Growth of Cells (%)” value (SK-MEL-2) was 55.66%. The “log TGI” value (SK-MEL-2; SK-MEL-2, five doses 10^−4–10^−8 M) was −5.42 log M, the GI50 (SK-MEL-28; Homo sapiens, SK-MEL-28, five doses 10^−4–10^−8 M) was 1.95 µM and the CC50 (SK-MEL-28; Homo sapiens, SK-MEL-28, five doses 10^−4–10^−8 M, read-out: log LC50 (the source's name) (converted)) was 6.46 µM. For the same compound, the “Growth of Cells (%)” value (SK-MEL-28) was −62.53%, the “log TGI” value (SK-MEL-28; SK-MEL-28, five doses 10^−4–10^−8 M) was −5.45 log M and the GI50 (MCF7; Homo sapiens, MCF7, five doses 10^−4–10^−8 M) was 2.24 µM. The CC50 (MCF7; Homo sapiens, MCF7, five doses 10^−4–10^−8 M, read-out: log LC50 (the source's name) (converted)) was 57.5 µM, the “Growth of Cells (%)” value (MCF7) was 22.84% and the “log TGI” value (MCF7; MCF7, five doses 10^−4–10^−8 M) was −5.25 log M. For the same compound, the “Growth of Cells (%)” value (HOP-62) was 95.98%, the “log TGI” value (HOP-62; HOP-62, five doses 10^−4–10^−8 M) was −5.46 log M and the GI50 (HOP-62; Homo sapiens, HOP-62, read-out: log GI50 (converted)) was 1.86 µM. It also gave a CC50 (HOP-62; Homo sapiens, HOP-62, five doses 10^−4–10^−8 M, read-out: log LC50 (the source's name) (converted)) of 6.31 µM, a GI50 (UO-31; Homo sapiens, UO-31, read-out: log GI50 (converted)) of 1.7 µM and a CC50 (UO-31; Homo sapiens, UO-31, five doses 10^−4–10^−8 M, read-out: log LC50 (the source's name) (converted)) of 6.03 µM. The “Growth of Cells (%)” value (UO-31) was −82.97%, the “log TGI” value (UO-31; UO-31, five doses 10^−4–10^−8 M) was −5.49 log M and the “Growth of Cells (%)” value (MALME-3M) was 40.72%. For the same compound, the GI50 (MALME-3M; [1]) was 2.29 µM, the LC50 (concentration causing 50% cell kill) (MALME-3M; [1]) was 8.13 µM and the “log TGI” value (MALME-3M; five doses 10^−4–10^−8 M) was −5.37 log M. The GI50 (KM12; Homo sapiens, KM12, five doses 10^−4–10^−8 M) was 2.29 µM, the CC50 (KM12; Homo sapiens, KM12, five doses 10^−4–10^−8 M, read-out: log LC50 (the source's name) (converted)) was 14.5 µM and the “Growth of Cells (%)” value (KM12) was 90.93%. The “log TGI” value (KM12; KM12, five doses 10^−4–10^−8 M) was −5.30 log M, the GI50 (MDA-MB-231/ATCC; Homo sapiens, MDA-MB-231, read-out: log GI50 (converted)) was 2 µM and the CC50 (MDA-MB-231/ATCC; Homo sapiens, MDA-MB-231/ATCC, five doses 10^−4–10^−8 M, read-out: log LC50 (the source's name) (converted)) was 7.59 µM. For the same compound, the “Growth of Cells (%)” value (MDA-MB-231/ATCC; MDA-MB-231/ATCC) was 13.85% and the “log TGI” value (MDA-MB-231/ATCC; MDA-MB-231/ATCC, five doses 10^−4–10^−8 M) was −5.41 log M.

In the case of `Fc1ccc(CNc2nc(C(F)(F)F)nc3c2sc(=S)n3-c2ccccc2)cc1` [Compound 4c], the “Growth of Cells (%)” value (OVCAR-3) is reported as 111.62%, the “Growth of Cells (%)” value (A549/ATCC) is reported as 98.32% and the “Growth of Cells (%)” value (SK-OV-3) is reported as 99.96%. For the same compound, the “Growth of Cells (%)” value (MDA-MB-468) was 96.15%, the “Growth of Cells (%)” value (SK-MEL-5) was 105.71% and the “Growth of Cells (%)” value (M14) was 112.06%. For the same compound, the “Growth of Cells (%)” value (RXF 393) was 104.44%, the “Growth of Cells (%)” value (COLO-205) was 112.07% and the “Growth of Cells (%)” value (SK-MEL-2) was 95.77%. For the same compound, the “Growth of Cells (%)” value (SK-MEL-28) was 110.02%, the “Growth of Cells (%)” value (MCF7) was 98.77% and the “Growth of Cells (%)” value (HOP-62) was 92.88%. For the same compound, the “Growth of Cells (%)” value (UO-31) was 82.87%, the “Growth of Cells (%)” value (MALME-3M) was 106.31% and the “Growth of Cells (%)” value (KM12) was 113.23%. For the same compound, the “Growth of Cells (%)” value (MDA-MB-231/ATCC; MDA-MB-231/ATCC) was 119.48%.
